{
  "source": "ChEMBL document CHEMBL1122438",
  "about": "“2-Phenylpyrazolo[1,5-a]pyrimidin-7-ones. A new class of nonsteroidal antiinflammatory drugs devoid of ulcerogenic activity” (J Med Chem, 1983)",
  "key": {"Mus musculus [1]": {"test_system": "Mus musculus", "assay": "Percent reduction of edema in mice 3h after oral administration of 300 mg/kg in carrageenan model", "format": "functional"}, "Rattus norvegicus [2]": {"test_system": "Rattus norvegicus", "assay": "Percent reduction of edema in rat on 23rd day after oral administration of 300 mg/kg in antiarthritis assay; i = Inactive", "format": "functional, organism-based", "design": "dose 300 mg/kg", "conditions": "at 300 mg/kg"}, "Rattus norvegicus [3]": {"test_system": "Rattus norvegicus", "assay": "Percent reduction of edema in rat on 23rd day after oral administration of 30 mg/kg in antiarthritis assay; i = Inactive", "format": "functional, organism-based", "design": "dose 30 mg/kg", "conditions": "at 30 mg/kg"}, "Mus musculus [4]": {"test_system": "Mus musculus", "assay": "Percent reduction of edema in mice 3h after oral administration of 30 mg/kg in carrageenan model", "format": "functional"}, "Rattus norvegicus [5]": {"test_system": "Rattus norvegicus", "assay": "Percent reduction of edema in rat on 23rd day after oral administration of 100 mg/kg in antiarthritis assay", "format": "functional"}, "Mus musculus [6]": {"test_system": "Mus musculus", "assay": "Percent reduction of edema in mice 3h after oral administration of 100 mg/kg in carrageenan model", "format": "functional"}, "Mus musculus [7]": {"test_system": "Mus musculus", "assay": "Acute toxicity was evaluated as number of mice (tested=7) died after 72nd hour when 170 mg/kg is administered intraperitoneally", "format": "organism-based", "design": "dose 170 mg/kg, route intraperitoneal", "conditions": "in vivo, ip"}, "Rattus norvegicus [8]": {"test_system": "Rattus norvegicus", "assay": "Ulcer index at 100 mg/kg concentration", "format": "functional"}, "Mus musculus [9]": {"test_system": "Mus musculus", "assay": "Analgesic activity evaluated by measuring % analgesic effect, after oral administration of 300 mg/kg in acetic acid writhing test", "format": "functional"}, "Mus musculus [10]": {"test_system": "Mus musculus", "assay": "Acute toxicity was evaluated as number of mice (tested=7) died after 72nd hour when 225 mg/kg is administered intraperitoneally", "format": "organism-based", "design": "dose 225 mg/kg, route intraperitoneal", "conditions": "in vivo, ip"}, "Mus musculus [11]": {"test_system": "Mus musculus", "assay": "Analgesic activity evaluated by measuring % analgesic effect, after oral administration of 500 mg/kg in acetic acid writhing test", "format": "functional"}, "[12]": {"assay": "Therapeutic index was expressed as LD50/ED50 carragreenin model", "conditions": "mouse; read-out: TI"}, "Mus musculus [13]": {"test_system": "Mus musculus", "assay": "Acute toxicity was evaluated as number of mice (tested=7) died after 72nd hour when 300 mg/kg is administered intraperitoneally", "format": "organism-based", "design": "dose 300 mg/kg, route intraperitoneal", "conditions": "in vivo, ip"}, "Rattus norvegicus [14]": {"test_system": "Rattus norvegicus", "assay": "Antiinflammatory activity evaluated by measuring % reduction of edema, 3h after oral administration of 25 mg/kg in carrageenan model", "format": "functional"}, "Rattus norvegicus [15]": {"organism": "Rattus norvegicus", "assay": "Antiinflammatory activity in carrageenan model, activity is expressed as ED50 values", "format": "functional"}, "Rattus norvegicus [16]": {"test_system": "Rattus norvegicus", "assay": "Antiinflammatory activity evaluated by measuring % reduction of edema, 3h after oral administration of 50 mg/kg in carrageenan model", "format": "functional"}, "Rattus norvegicus [17]": {"test_system": "Rattus norvegicus", "assay": "Antiinflammatory activity evaluated by measuring % reduction of edema, 3h after oral administration of 10 mg/kg in carrageenan model", "format": "functional"}, "Rattus norvegicus [18]": {"test_system": "Rattus norvegicus", "assay": "Percent reduction of edema in rat on 23rd day after oral administration of 20 mg/kg in antiarthritis assay", "format": "functional"}, "Mus musculus [19]": {"test_system": "Mus musculus", "assay": "Percent reduction of edema in mice 3h after oral administration of 20 mg/kg in carrageenan model", "format": "functional"}, "Rattus norvegicus [20]": {"test_system": "Rattus norvegicus", "assay": "Ulcer index at 200 mg/kg concentration", "format": "functional"}, "Rattus norvegicus [21]": {"test_system": "Rattus norvegicus", "assay": "Ulcer index at 50 mg/kg concentration", "format": "functional"}, "Rattus norvegicus [22]": {"organism": "Rattus norvegicus", "assay": "Median ulcerogenic dose was determined", "format": "functional"}, "Mus musculus [23]": {"test_system": "Mus musculus", "assay": "Acute toxicity was evaluated as number of mice (tested=7) died after 72nd hour when 350 mg/kg is administered intraperitoneally", "format": "organism-based", "design": "dose 350 mg/kg, route intraperitoneal", "conditions": "in vivo, ip"}, "Rattus norvegicus [24]": {"organism": "Rattus norvegicus", "assay": "Analgesic activity in acetic acid writhing test, activity is expressed as ED50 values", "format": "functional"}, "[25]": {"assay": "Toxic activity is expressed as LD50 values", "format": "toxicity, organism-based", "conditions": "mouse, in vivo"}, "Rattus norvegicus [26]": {"test_system": "Rattus norvegicus", "assay": "Antiinflammatory activity evaluated by measuring % reduction of edema, 3h after oral administration of 20 mg/kg in carrageenan model", "format": "functional"}, "Rattus norvegicus [27]": {"test_system": "Rattus norvegicus", "assay": "Antiinflammatory activity evaluated by measuring % reduction of edema, 3h after oral administration of 30 mg/kg in carrageenan model", "format": "functional"}, "Rattus norvegicus [28]": {"test_system": "Rattus norvegicus", "assay": "Percent reduction of edema in rat on 23rd day after oral administration of 30 mg/kg in antiarthritis assay", "format": "functional"}},
  "note": "The source made the active and inactive calls. No cut-off for these calls is given here.",
  "data": [
    {"smiles": "Cc1cn(C)c2cc(-c3ccccc3)nn2c1=O", "values": [
      {"measurement": "Reduction", "setting": "Mus musculus [1]", "value": 68.7, "unit": "%"},
      {"measurement": "Reduction", "setting": "Rattus norvegicus [2]", "value": "inactive"}
    ]},
    {"smiles": "CCn1ccc(=O)n2nc(C)cc12", "values": [
      {"measurement": "Reduction", "setting": "Rattus norvegicus [3]", "value": "inactive"},
      {"measurement": "Reduction", "setting": "Mus musculus [4]", "value": 7.3, "unit": "%"}
    ]},
    {"smiles": "CCn1c(=O)ccn2nc(-c3ccccc3)cc12", "values": [
      {"measurement": "Reduction", "setting": "Rattus norvegicus [5]", "value": 25.7, "unit": "%"},
      {"measurement": "Reduction", "setting": "Mus musculus [6]", "value": 32.2, "unit": "%"}
    ]},
    {"smiles": "CCCCC1C(=O)N(c2ccccc2)N(c2ccccc2)C1=O", "note": "[PHENYLBUTAZONE]", "values": [
      {"measurement": "Acute toxicity", "setting": "Mus musculus [7]", "value": 0},
      {"measurement": "UI", "setting": "Rattus norvegicus [8]", "value": 2.55},
      {"measurement": "Analgesic effect", "setting": "Mus musculus [9]", "value": 57.7, "unit": "%"},
      {"measurement": "Acute toxicity", "setting": "Mus musculus [10]", "value": 2},
      {"measurement": "Analgesic effect", "setting": "Mus musculus [11]", "value": 73, "unit": "%"},
      {"measurement": "selectivity ratio", "setting": "[12]", "value": 18.2},
      {"measurement": "Acute toxicity", "setting": "Mus musculus [13]", "value": 4},
      {"measurement": "Reduction", "setting": "Rattus norvegicus [14]", "value": 52.9, "unit": "%"},
      {"measurement": "ED50", "setting": "Rattus norvegicus [15]", "value": 13.1, "unit": "mg/kg"},
      {"measurement": "Reduction", "setting": "Rattus norvegicus [16]", "value": 62.9, "unit": "%"},
      {"measurement": "Reduction", "setting": "Rattus norvegicus [17]", "value": 48.7, "unit": "%"},
      {"measurement": "Reduction", "setting": "Rattus norvegicus [18]", "value": 20.7, "unit": "%"},
      {"measurement": "Reduction", "setting": "Mus musculus [19]", "value": 52.9, "unit": "%"},
      {"measurement": "UI", "setting": "Rattus norvegicus [20]", "value": 3.2},
      {"measurement": "UI", "setting": "Rattus norvegicus [21]", "value": 1.35},
      {"measurement": "UD50", "setting": "Rattus norvegicus [22]", "value": 72.4, "unit": "mg/kg"},
      {"measurement": "Acute toxicity", "setting": "Mus musculus [23]", "value": 7},
      {"measurement": "ED50", "setting": "Rattus norvegicus [24]", "value": 274, "unit": "mg/kg"},
      {"measurement": "LD50", "setting": "[25]", "value": 238, "unit": "mg/kg"}
    ]},
    {"smiles": "CCOC(=O)/C=C/n1ccc(=O)n2nc(-c3ccccc3)cc12", "values": [
      {"measurement": "Reduction", "setting": "Rattus norvegicus [3]", "value": "inactive"},
      {"measurement": "Reduction", "setting": "Mus musculus [4]", "value": 23.4, "unit": "%"}
    ]},
    {"smiles": "CCn1ccc(=O)n2nc(-c3ccc(C)cc3)cc12", "values": [
      {"measurement": "Reduction", "setting": "Rattus norvegicus [3]", "value": "inactive"},
      {"measurement": "Reduction", "setting": "Mus musculus [4]", "value": 35.9, "unit": "%"}
    ]},
    {"smiles": "CCn1cc(Br)c(=O)n2nc(-c3ccccc3)c(Br)c12", "values": [
      {"measurement": "Reduction", "setting": "Rattus norvegicus [3]", "value": "inactive"},
      {"measurement": "Reduction", "setting": "Mus musculus [4]", "value": 0, "unit": "%"}
    ]},
    {"smiles": "CCn1ccc(=O)n2nc(-c3ccccc3)c(N=O)c12", "values": [
      {"measurement": "Reduction", "setting": "Rattus norvegicus [3]", "value": "inactive"},
      {"measurement": "Reduction", "setting": "Mus musculus [4]", "value": 7.03, "unit": "%"}
    ]},
    {"smiles": "CCn1ccc(=O)n2nc(-c3ccccc3)c(SSc3c(-c4ccccc4)nn4c(=O)ccn(CC)c34)c12", "values": [
      {"measurement": "Reduction", "setting": "Rattus norvegicus [3]", "value": "inactive"},
      {"measurement": "Reduction", "setting": "Mus musculus [4]", "value": 37.5, "unit": "%"}
    ]},
    {"smiles": "CCCn1ccc(=O)n2nc(-c3ccccc3)cc12", "values": [
      {"measurement": "Reduction", "setting": "Rattus norvegicus [26]", "value": 31.9, "unit": "%"},
      {"measurement": "Reduction", "setting": "Rattus norvegicus [16]", "value": 70.8, "unit": "%"},
      {"measurement": "Reduction", "setting": "Mus musculus [4]", "value": 52.1, "unit": "%"},
      {"measurement": "Reduction", "setting": "Rattus norvegicus [27]", "value": 52, "unit": "%"},
      {"measurement": "ED50", "setting": "Rattus norvegicus [24]", "value": 29.8, "unit": "mg/kg"},
      {"measurement": "Reduction", "setting": "Rattus norvegicus [28]", "value": 33, "unit": "%"}
    ]},
    {"smiles": "CCn1ccc(=O)n2nc(-c3ccccc3)c(SC#N)c12", "values": [
      {"measurement": "Reduction", "setting": "Rattus norvegicus [3]", "value": "inactive"},
      {"measurement": "Reduction", "setting": "Mus musculus [4]", "value": 42.2, "unit": "%"}
    ]},
    {"smiles": "CCn1ccc(=O)n2nc(-c3ccccc3)c(Br)c12", "values": [
      {"measurement": "Reduction", "setting": "Rattus norvegicus [3]", "value": "inactive"},
      {"measurement": "Reduction", "setting": "Mus musculus [4]", "value": 40.5, "unit": "%"}
    ]}
  ]
}
